# Experimental data taken from ChEMBL document CHEMBL1201862, “PubChem BioAssay data set” (2004).
#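 Tested at 5 concentrations; 48 h exposure; 96-well plates; endpoints linearly interpolated, else capped at highest concentration. GI50: concentration for 50% inhibition of growth.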 Activity calls are given as the source filed them. No stated cut-off is given here; in the data, active = GI50 up to about 1.1 µM and inactive = higher.
# Legend:
# Experiment in all cases: NCI-60 cell line screen, 48 h
# A498 = system: A498
# CAKI-1 = system: CAKI-1
# CCRF-CEM = system: CCRF-CEM
# COLO 205 = system: COLO 205
# HL-60 = system: HL-60
# LOX IMVI = system: LOX IMVI
# M14 = system: M14
# NCI-H23 = system: NCI-H23
# OVCAR-3 = system: OVCAR-3
# OVCAR-8 = system: OVCAR-8
# SNB-75 = system: SNB-75
# U-251 = system: U-251
# A549 = system: A549
# HCT-116 = system: HCT-116
# HOP-62 = system: HOP-62
# RXF 393 = system: RXF 393
# SR = system: SR
SMILES,GI50 (A498),GI50 (CAKI-1),GI50 (CCRF-CEM),GI50 (COLO 205),GI50 (HL-60),GI50 (LOX IMVI),GI50 (M14),GI50 (NCI-H23),GI50 (OVCAR-3),GI50 (OVCAR-8),GI50 (SNB-75),GI50 (U-251),GI50 (A549),GI50 (HCT-116),GI50 (HOP-62),GI50 (RXF 393),GI50 (SR)
COc1ccccc1C1C(C(=O)O)=C(CO)Oc2cc3c(cc21)OCO3 (stereo not given),> 100 µM (inactive),> 100 µM (inactive),> 100 µM (inactive),> 100 µM (inactive),> 100 µM (inactive),> 100 µM (inactive),> 100 µM (inactive),> 100 µM (inactive),> 100 µM (inactive),> 100 µM (inactive),> 100 µM (inactive),> 100 µM (inactive),,,,,
CCOC(=O)C1=C(Nc2ccccc2)OC/C1=N\NC(=O)Cc1ccccc1,> 50 µM (inactive),> 50 µM (inactive),> 50 µM (inactive),> 50 µM (inactive),> 50 µM (inactive),> 50 µM (inactive),> 50 µM (inactive),> 50 µM (inactive),> 50 µM (inactive),> 50 µM (inactive),31.4 µM (inactive),> 50 µM (inactive),> 50 µM (inactive),> 50 µM (inactive),> 50 µM (inactive),> 50 µM (inactive),
CSc1nc(NC(=O)O)c(N(C(C)=O)C(=O)O)c(=O)n1C,> 100 µM (inactive),> 100 µM (inactive),> 100 µM (inactive),> 100 µM (inactive),> 100 µM (inactive),> 100 µM (inactive),> 100 µM (inactive),,> 100 µM (inactive),> 100 µM (inactive),,> 100 µM (inactive),> 100 µM (inactive),> 100 µM (inactive),,> 100 µM (inactive),
Cc1cc(C(C)(C)C)cc(Cc2cc(C(C)(C)C)cc(Cc3cc(C(C)(C)C)cc(C)c3O)c2O)c1O,19.5 µM (inactive),12.6 µM (inactive),3.04 µM (inactive),16.2 µM (inactive),3.71 µM (inactive),7.73 µM (inactive),7.26 µM (inactive),10 µM (inactive),4.75 µM (inactive),5.5 µM (inactive),4.49 µM (inactive),4.07 µM (inactive),5.86 µM (inactive),3.13 µM (inactive),15.4 µM (inactive),2.19 µM (inactive),
Cc1cc(Cl)ccc1/N=C1/NC(=O)C(CC(=O)Nc2cccc(C)c2C)S1 (stereo not given),16.9 µM (inactive),23.6 µM (inactive),22.2 µM (inactive),24.3 µM (inactive),,22.3 µM (inactive),18.1 µM (inactive),18.2 µM (inactive),31.2 µM (inactive),26.5 µM (inactive),19.9 µM (inactive),26.2 µM (inactive),32 µM (inactive),,24 µM (inactive),,
CCCCN(CCCC)C(=O)C(=O)C(C#N)c1ccc(C)cc1 (stereo not given),> 100 µM (inactive),> 100 µM (inactive),> 100 µM (inactive),,> 100 µM (inactive),> 100 µM (inactive),> 100 µM (inactive),> 100 µM (inactive),> 100 µM (inactive),> 100 µM (inactive),> 100 µM (inactive),> 100 µM (inactive),> 100 µM (inactive),> 100 µM (inactive),> 100 µM (inactive),> 100 µM (inactive),
CN1C(=O)NC2(O)c3ccccc3C(=O)C12O (stereo not given),,> 100 µM (inactive),> 100 µM (inactive),> 100 µM (inactive),> 100 µM (inactive),> 100 µM (inactive),> 100 µM (inactive),> 100 µM (inactive),> 100 µM (inactive),> 100 µM (inactive),> 100 µM (inactive),> 100 µM (inactive),> 100 µM (inactive),> 100 µM (inactive),,,> 100 µM (inactive)
COC1=CC(=O)c2ccccc2C1(CCC=C(C)C)C1=NC(C)(C)CO1 (stereo not given),,> 100 µM (inactive),28.6 µM (inactive),> 100 µM (inactive),23.7 µM (inactive),,> 100 µM (inactive),91.2 µM (inactive),> 100 µM (inactive),70.8 µM (inactive),> 100 µM (inactive),80.4 µM (inactive),51.6 µM (inactive),48.4 µM (inactive),> 100 µM (inactive),56.4 µM (inactive),40.3 µM (inactive)
CCCCC1=CSC(c2ccccc2)=C(c2ccccc2)S1,> 100 µM (inactive),,21.6 µM (inactive),> 100 µM (inactive),,20.1 µM (inactive),85.1 µM (inactive),36.1 µM (inactive),60.4 µM (inactive),73.8 µM (inactive),57 µM (inactive),30.9 µM (inactive),64.1 µM (inactive),6.46 µM (inactive),,,
COC(=O)/C(C#N)=C1\CCC(O)N1C (stereo not given),,> 100 µM (inactive),> 100 µM (inactive),,> 100 µM (inactive),> 100 µM (inactive),> 100 µM (inactive),> 100 µM (inactive),> 100 µM (inactive),> 100 µM (inactive),> 100 µM (inactive),> 100 µM (inactive),> 100 µM (inactive),> 100 µM (inactive),> 100 µM (inactive),> 100 µM (inactive),
N=S(c1ccccc1[N+](=O)[O-])c1ccccc1[N+](=O)[O-],16.6 µM (inactive),3.3 µM (inactive),0.687 µM (active),1.95 µM (inactive),,0.944 µM (active),2.09 µM (inactive),5.26 µM (inactive),1.5 µM (inactive),3.65 µM (inactive),6.34 µM (inactive),,6.67 µM (inactive),1.5 µM (inactive),5.96 µM (inactive),4.06 µM (inactive),
CC1C=CC(=O)C(n2cc(F)c(=O)[nH]c2=O)O1 (stereo not given),,11.6 µM (inactive),8.89 µM (inactive),20.1 µM (inactive),20.1 µM (inactive),15.8 µM (inactive),18.1 µM (inactive),18.1 µM (inactive),17.3 µM (inactive),22.4 µM (inactive),18.8 µM (inactive),15.7 µM (inactive),24.4 µM (inactive),15.7 µM (inactive),20.8 µM (inactive),19.8 µM (inactive),
C=CCNC1=NC(=O)C(CC(=O)Nc2cccc(Cl)c2)S1 (stereo not given),> 100 µM (inactive),> 100 µM (inactive),> 100 µM (inactive),> 100 µM (inactive),> 100 µM (inactive),> 100 µM (inactive),> 100 µM (inactive),> 100 µM (inactive),> 100 µM (inactive),> 100 µM (inactive),> 100 µM (inactive),> 100 µM (inactive),> 100 µM (inactive),,> 100 µM (inactive),> 100 µM (inactive),
CC1Cc2c(N)nc(N3CCOCC3)nc2NC1=O (stereo not given),,,> 100 µM (inactive),> 100 µM (inactive),> 100 µM (inactive),> 100 µM (inactive),> 100 µM (inactive),> 100 µM (inactive),> 100 µM (inactive),> 100 µM (inactive),5.53 µM (inactive),> 100 µM (inactive),> 100 µM (inactive),> 100 µM (inactive),> 100 µM (inactive),> 100 µM (inactive),
COc1ccc(NC(=O)CC(=O)n2nc(C)c(/N=N/c3ccccc3C(=O)O)c2C)cc1,> 100 µM (inactive),> 100 µM (inactive),> 100 µM (inactive),> 100 µM (inactive),> 100 µM (inactive),> 100 µM (inactive),> 100 µM (inactive),> 100 µM (inactive),> 100 µM (inactive),> 100 µM (inactive),33 µM (inactive),> 100 µM (inactive),> 100 µM (inactive),> 100 µM (inactive),> 100 µM (inactive),,
Cc1ccc2c(c1)C1(OC(=O)c3ccccc31)c1ccc(F)cc1O2 (stereo not given),,30 µM (inactive),31.8 µM (inactive),38.7 µM (inactive),21.7 µM (inactive),39.6 µM (inactive),28.6 µM (inactive),,55.2 µM (inactive),> 100 µM (inactive),,,48.9 µM (inactive),32.7 µM (inactive),> 100 µM (inactive),,25.5 µM (inactive)
Cc1ccc(C2=C(c3ccccc3)C(Br)(c3ccc(C)cc3)C(c3ccccc3)=C2c2ccc(C)cc2)cc1,> 100 µM (inactive),> 100 µM (inactive),> 100 µM (inactive),> 100 µM (inactive),> 100 µM (inactive),> 100 µM (inactive),> 100 µM (inactive),> 100 µM (inactive),> 100 µM (inactive),> 100 µM (inactive),,> 100 µM (inactive),> 100 µM (inactive),> 100 µM (inactive),> 100 µM (inactive),,
CC(C(=O)C(C)O[Si](c1ccccc1)(c1ccccc1)C(C)(C)C)=P(c1ccccc1)(c1ccccc1)c1ccccc1 (stereo not given),4.28 µM (inactive),3.21 µM (inactive),3.5 µM (inactive),1.8 µM (inactive),1.91 µM (inactive),3.29 µM (inactive),4.32 µM (inactive),3.23 µM (inactive),2.9 µM (inactive),3.82 µM (inactive),3.41 µM (inactive),4.01 µM (inactive),3.3 µM (inactive),2.98 µM (inactive),3.09 µM (inactive),,
Cc1ccc(S(=O)(=O)NC(=O)Nc2nc(Cl)cc(Cl)n2)cc1,> 100 µM (inactive),> 100 µM (inactive),> 100 µM (inactive),> 100 µM (inactive),> 100 µM (inactive),> 100 µM (inactive),> 100 µM (inactive),> 100 µM (inactive),> 100 µM (inactive),> 100 µM (inactive),> 100 µM (inactive),> 100 µM (inactive),> 100 µM (inactive),> 100 µM (inactive),> 100 µM (inactive),> 100 µM (inactive),
